ChEMBL document CHEMBL1142248, “Structure-activity relationships and pharmacokinetic parameters of quinoline acylsulfonamides as potent and selective antagonists of the EP(4) receptor” (Bioorg Med Chem Lett, 2008)

Experiments:
[1] = biological target: T1, Prostaglandin E2 receptor EP4 subtype (Homo sapiens, UniProt P35408); experiment: Binding affinity to human EP4 receptor expressed in HEK293 cells; assay type: cell-based
[2] = biological target: T1, Prostaglandin E2 receptor EP4 subtype; experiment: Binding affinity to human EP4 receptor expressed in HEK293 cells in presence of 10% human serum; assay type: cell-based
Rattus norvegicus = organism: Rattus norvegicus; experiment: Antiinflammatory activity against adjuvant-induced rat arthritis model; assay type: functional
[3] = biological target: Prostaglandin F2-alpha receptor (Homo sapiens, UniProt P43088); experiment: Binding affinity to human FP receptor expressed in HEK293 cells; assay type: cell-based
Chain of Prostaglandin F2-alpha receptor (P43088 whole entry): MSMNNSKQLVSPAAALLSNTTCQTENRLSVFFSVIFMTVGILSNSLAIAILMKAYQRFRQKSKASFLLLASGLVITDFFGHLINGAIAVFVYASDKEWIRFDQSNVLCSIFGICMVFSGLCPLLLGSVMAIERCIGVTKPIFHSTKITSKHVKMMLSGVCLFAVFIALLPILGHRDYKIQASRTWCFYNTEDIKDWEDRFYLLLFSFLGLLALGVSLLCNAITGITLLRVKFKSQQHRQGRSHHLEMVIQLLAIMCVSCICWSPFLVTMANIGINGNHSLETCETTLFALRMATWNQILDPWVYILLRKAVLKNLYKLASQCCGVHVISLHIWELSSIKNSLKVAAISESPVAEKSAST

[4] = biological target: T2, Prostaglandin E2 receptor EP1 subtype (Homo sapiens, UniProt P34995); experiment: Binding affinity to human EP1 receptor expressed in HEK293 cells; assay type: cell-based
T2 sequence (P34995 whole entry): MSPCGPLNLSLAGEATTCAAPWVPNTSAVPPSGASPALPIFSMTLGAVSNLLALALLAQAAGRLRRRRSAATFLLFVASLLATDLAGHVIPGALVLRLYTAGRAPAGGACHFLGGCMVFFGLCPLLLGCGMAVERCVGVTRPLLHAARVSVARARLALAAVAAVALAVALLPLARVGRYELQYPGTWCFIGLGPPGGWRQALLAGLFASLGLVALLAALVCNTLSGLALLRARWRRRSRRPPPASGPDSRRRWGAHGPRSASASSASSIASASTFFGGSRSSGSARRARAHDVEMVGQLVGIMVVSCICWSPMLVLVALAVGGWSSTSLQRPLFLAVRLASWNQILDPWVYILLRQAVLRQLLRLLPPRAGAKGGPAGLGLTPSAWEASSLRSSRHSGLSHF

[5] = biological target: T3, Prostaglandin D2 receptor (Homo sapiens, UniProt Q13258); experiment: Binding affinity to human DP receptor expressed in HEK293 cells; assay type: cell-based
T3 sequence (Q13258 whole entry): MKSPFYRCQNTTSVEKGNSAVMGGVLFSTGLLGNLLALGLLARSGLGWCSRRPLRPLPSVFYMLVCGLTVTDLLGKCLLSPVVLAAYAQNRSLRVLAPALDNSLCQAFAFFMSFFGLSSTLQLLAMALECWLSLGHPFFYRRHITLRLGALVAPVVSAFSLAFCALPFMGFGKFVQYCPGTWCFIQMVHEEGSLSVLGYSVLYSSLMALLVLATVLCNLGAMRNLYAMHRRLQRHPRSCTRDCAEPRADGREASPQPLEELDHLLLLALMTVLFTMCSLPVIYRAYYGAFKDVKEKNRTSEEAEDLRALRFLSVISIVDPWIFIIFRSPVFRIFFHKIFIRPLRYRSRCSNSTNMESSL

[6] = biological target: T4, Prostaglandin E2 receptor EP3 subtype (Homo sapiens, UniProt P43115); experiment: Binding affinity to human EP3 receptor expressed in HEK293 cells; assay type: cell-based
T4 sequence (P43115 whole entry): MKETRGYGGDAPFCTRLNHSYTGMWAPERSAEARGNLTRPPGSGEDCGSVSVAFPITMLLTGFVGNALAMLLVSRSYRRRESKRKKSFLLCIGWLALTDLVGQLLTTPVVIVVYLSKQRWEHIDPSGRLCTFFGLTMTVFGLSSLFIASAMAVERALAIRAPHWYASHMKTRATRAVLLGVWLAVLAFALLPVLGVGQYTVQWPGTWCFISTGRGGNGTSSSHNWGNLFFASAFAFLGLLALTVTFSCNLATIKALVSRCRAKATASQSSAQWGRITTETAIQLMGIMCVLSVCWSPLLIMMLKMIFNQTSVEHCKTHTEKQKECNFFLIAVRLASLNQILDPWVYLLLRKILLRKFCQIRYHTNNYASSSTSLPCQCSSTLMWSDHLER

Prostacyclin receptor = Prostacyclin receptor (Homo sapiens, UniProt P43119); experiment: Binding affinity to human IP receptor expressed in HEK293 cells; assay type: cell-based
Chain of Prostacyclin receptor (P43119 whole entry): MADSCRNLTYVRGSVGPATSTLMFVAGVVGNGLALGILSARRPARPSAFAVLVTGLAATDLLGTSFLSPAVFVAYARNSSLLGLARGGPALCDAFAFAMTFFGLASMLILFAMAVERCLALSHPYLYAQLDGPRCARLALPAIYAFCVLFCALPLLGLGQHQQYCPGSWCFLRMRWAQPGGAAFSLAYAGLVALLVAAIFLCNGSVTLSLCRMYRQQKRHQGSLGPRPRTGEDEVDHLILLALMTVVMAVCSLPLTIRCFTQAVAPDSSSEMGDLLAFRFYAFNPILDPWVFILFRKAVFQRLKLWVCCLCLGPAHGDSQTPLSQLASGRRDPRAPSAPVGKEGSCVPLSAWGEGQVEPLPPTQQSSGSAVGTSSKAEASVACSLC

[7] = biological target: Prostaglandin E2 receptor EP2 subtype (Homo sapiens, UniProt P43116); experiment: Binding affinity to human EP2 receptor expressed in HEK293 cells; assay type: cell-based
Chain of Prostaglandin E2 receptor EP2 subtype (P43116 whole entry): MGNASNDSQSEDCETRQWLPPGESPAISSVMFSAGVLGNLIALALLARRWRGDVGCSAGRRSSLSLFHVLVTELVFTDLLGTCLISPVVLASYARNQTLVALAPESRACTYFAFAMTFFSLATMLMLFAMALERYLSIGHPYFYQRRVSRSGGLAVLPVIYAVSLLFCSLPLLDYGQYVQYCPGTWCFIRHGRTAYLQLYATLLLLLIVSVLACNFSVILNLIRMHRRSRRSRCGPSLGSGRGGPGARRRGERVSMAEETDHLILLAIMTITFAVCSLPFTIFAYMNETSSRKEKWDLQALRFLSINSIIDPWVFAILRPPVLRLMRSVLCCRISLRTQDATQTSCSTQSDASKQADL

Thromboxane A2 receptor = biological target: T5, Thromboxane A2 receptor (Homo sapiens, UniProt P21731); experiment: Binding affinity to human TP receptor expressed in HEK293 cells; assay type: cell-based
T5 sequence (P21731 whole entry): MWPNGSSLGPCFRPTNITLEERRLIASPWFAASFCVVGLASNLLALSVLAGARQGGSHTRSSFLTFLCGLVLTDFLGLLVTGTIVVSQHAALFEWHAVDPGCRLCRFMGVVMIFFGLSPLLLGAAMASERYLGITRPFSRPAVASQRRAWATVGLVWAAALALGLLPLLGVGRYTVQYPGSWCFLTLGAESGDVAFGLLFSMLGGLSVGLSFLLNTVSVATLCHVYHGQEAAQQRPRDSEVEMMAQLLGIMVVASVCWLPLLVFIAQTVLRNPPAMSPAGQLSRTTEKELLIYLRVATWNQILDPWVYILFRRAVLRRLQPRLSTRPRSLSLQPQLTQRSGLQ

[8] = Half life in guinea pig at 5 mg/kg, iv; assay type: ADME, organism-based, Cavia porcellus; design: dose 5 mg/kg, route intravenous; conditions: in vivo
[9] = Volume of distribution at steady state in guinea pig at 20 mg/kg, po or 5 mg/kg, iv; assay type: ADME, organism-based, Cavia porcellus; conditions: in vivo, read-out: Vdss
[10] = Bioavailability in rat at 20 mg/kg, po or 5 mg/kg, iv; assay type: ADME, organism-based; conditions: in vivo
[11] = Half life in dog at 2 mg/kg, iv; assay type: ADME, organism-based, Canis lupus familiaris; design: dose 2 mg/kg, route intravenous; conditions: in vivo
[12] = Volume of distribution at steady state in dog at 10 mg/kg, po or 2 mg/kg, iv; assay type: ADME, organism-based, Canis lupus familiaris; conditions: in vivo, read-out: Vdss
[13] = Bioavailability in guinea pig at 20 mg/kg, po or 5 mg/kg, iv; assay type: ADME, organism-based, Cavia porcellus; conditions: in vivo
[14] = Bioavailability in dog at 10 mg/kg, po or 2 mg/kg, iv; assay type: ADME, organism-based, Canis lupus familiaris; conditions: in vivo
[15] = Volume of distribution at steady state in rat at 20 mg/kg, po or 5 mg/kg, iv; assay type: ADME, organism-based; conditions: in vivo, read-out: Vdss
[16] = Clearance in rat at 20 mg/kg, po or 5 mg/kg, iv; assay type: ADME, organism-based; conditions: in vivo
[17] = Half life in rat at 5 mg/kg, iv; assay type: ADME, organism-based; design: dose 5 mg/kg, route intravenous; conditions: in vivo
[18] = Clearance in guinea pig at 20 mg/kg, po or 5 mg/kg, iv; assay type: ADME, organism-based, Cavia porcellus; conditions: in vivo
[19] = Clearance in dog at 10 mg/kg, po or 2 mg/kg, iv; assay type: ADME, organism-based, Canis lupus familiaris; conditions: in vivo

T1 sequence (P35408 whole entry): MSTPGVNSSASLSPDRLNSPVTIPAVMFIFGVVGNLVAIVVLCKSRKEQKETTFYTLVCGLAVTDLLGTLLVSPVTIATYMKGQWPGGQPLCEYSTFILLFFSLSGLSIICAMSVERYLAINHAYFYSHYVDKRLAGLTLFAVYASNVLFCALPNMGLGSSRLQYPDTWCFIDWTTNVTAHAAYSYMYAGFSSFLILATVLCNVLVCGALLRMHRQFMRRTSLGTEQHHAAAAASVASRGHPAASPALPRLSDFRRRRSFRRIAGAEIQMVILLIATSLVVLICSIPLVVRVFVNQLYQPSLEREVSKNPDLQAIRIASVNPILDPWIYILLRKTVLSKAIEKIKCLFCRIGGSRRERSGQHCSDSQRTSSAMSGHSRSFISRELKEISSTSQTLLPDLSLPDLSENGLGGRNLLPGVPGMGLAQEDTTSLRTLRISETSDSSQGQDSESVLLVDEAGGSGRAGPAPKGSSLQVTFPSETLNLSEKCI

| SMILES | Ki [1] | Ki [2] | other results |
| --- | --- | --- | --- |
| COc1ccccc1CC(=O)NS(=O)(=O)Cc1ccc(N2Cc3c(c(OCC(F)(F)F)c4cccnc4c3OCC(F)(F)F)C2=O)c(C)c1 | 0.38 nM | 17 nM |  |
| CCOc1c2c(c(OCC)c3ncccc13)CN(c1ccc(CS(=O)(=O)NC(=O)Cc3c(Cl)cccc3Cl)cc1C)C2=O | 0.28 nM | 4.8 nM |  |
| CCOc1c2c(c(OCC)c3ncccc13)CN(c1ccc(CS(=O)(=O)NC(=O)Cc3ccccn3)cc1C)C2=O | 2.4 nM | 13 nM |  |
| CCOc1c2c(c(OCC)c3ncccc13)CN(c1ccc(CS(=O)(=O)NC(=O)Cc3ccccc3)cc1C)C2=O | 0.76 nM | 31 nM |  |
| COc1ccccc1CC(=O)NS(=O)(=O)Cc1ccc(N2Cc3c(c(OC(C)C)c4cccnc4c3OC(C)C)C2=O)c(C)c1 | 0.36 nM | 26 nM |  |
| CCOc1c2c(c(OCC)c3ccccc13)C(=O)N(c1ccc(CS(=O)(=O)NC(=O)C(c3ccccc3)c3ccccc3)cc1)C2 | 7.9 nM | > 4000 nM |  |
| CCOc1c2c(c(OCC)c3ncccc13)CN(c1ccc(CS(=O)(=O)NC(=O)Cc3cccnc3)cc1C)C2=O | 2.8 nM | 48 nM |  |
| CCOc1c2c(c(OCC)c3ccccc13)C(=O)N(c1ccc(CS(=O)(=O)NC(=O)Cc3cccc4ccccc34)cc1)C2 | 0.43 nM | 4.8 nM |  |
| CCOc1c2c(c(OCC)c3ccccc13)C(=O)N(c1ccc(CS(=O)(=O)NC(=O)COc3ccccc3)cc1)C2 | 0.38 nM | 1200 nM |  |
| CCOc1c2c(c(OCC)c3ncccc13)CN(c1ccc(CS(=O)(=O)NC(=O)Cc3ccccc3C(F)(F)F)cc1C)C2=O | 0.43 nM | 350 nM |  |
| CCOc1c2c(c(OCC)c3ccccc13)C(=O)N(c1ccc(CS(=O)(=O)NC(=O)CCc3ccsc3)cc1)C2 | 4.2 nM | > 4000 nM |  |
| CS(=O)(=O)c1ccc(C2=C(c3ccccc3)C(=O)OC2)cc1 [ROFECOXIB] |  |  | ED50 (Rattus norvegicus): 0.74 mg/kg |
| COc1cccc(OC)c1C1(C(=O)NS(=O)(=O)Cc2ccc(N3Cc4c(c(OCC(F)(F)F)c5cccnc5c4OCC(F)(F)F)C3=O)c(C)c2)CC1 | 0.79 nM | 1.6 nM | ED50 (Rattus norvegicus): 0.005 mg/kg; Ki [3]: 340 nM; Ki [4]: > 9000 nM; Ki [5]: 53 nM; Ki [6]: 2700 nM; Ki (Prostacyclin receptor): 2000 nM; Ki [7]: 300 nM; Ki (Thromboxane A2 receptor): 39 nM |
| CCOc1c2c(c(OCC)c3ncccc13)CN(c1ccc(CS(=O)(=O)NC(=O)Cc3ccccc3F)cc1C)C2=O | 0.48 nM | 34 nM |  |
| CCOc1c2c(c(OCC)c3ncccc13)CN(c1ccc(CS(=O)(=O)NC(=O)C3(c4ccccc4OC)CC3)cc1C)C2=O | 0.55 nM | 4.2 nM |  |
| CCOc1c2c(c(OCC)c3ccccc13)C(=O)N(c1ccc(CS(=O)(=O)NC(=O)Cn3nccc3C)cc1)C2 | 2 nM | 600 nM |  |

| SMILES | Ki [1] | Ki [2] | other results |
| --- | --- | --- | --- |
| CCOc1c2c(c(OCC)c3ncccc13)CN(c1ccc(CS(=O)(=O)[N-]C(=O)Cc3ccccc3OC)cc1C)C2=O.[Na+] |  |  | half-life [8]: 8.6 h; Vd [9]: 0.6 L/kg; bioavailability [10]: > 99%; half-life [11]: 4.1 h; Vd [12]: 0.1 L/kg; bioavailability [13]: 18%; bioavailability [14]: 49%; Vd [15]: 1.6 L/kg; clearance [16]: 7.8 mL/min/kg; half-life [17]: 2.7 h; clearance [18]: 3.6 mL/min/kg; clearance [19]: 0.4 mL/min/kg |
| CCOc1c2c(c(OCC)c3ncccc13)CN(c1ccc(CS(=O)(=O)NC(=O)Cc3ccncc3)cc1C)C2=O | 9.8 nM | 160 nM |  |
| CCOc1c2c(c(OCC)c3ccccc13)C(=O)N(c1ccc(CS(=O)(=O)NC(=O)Cc3c(C)cc(C)cc3C)cc1)C2 | 0.43 nM | 380 nM |  |
| CCOc1c2c(c(OCC)c3ncccc13)CN(c1ccc(CS(=O)(=O)NC(=O)Cc3ccccc3Cl)cc1C)C2=O | 0.27 nM | 37 nM |  |
| COc1ccccc1C1(C(=O)NS(=O)(=O)Cc2ccc(N3Cc4c(c(OCC(F)(F)F)c5cccnc5c4OCC(F)(F)F)C3=O)c(C)c2)CC1 | 0.95 nM | 12 nM |  |
| CCOc1c2c(c(OCC)c3ncccc13)C(=O)N(c1ccc(CS(=O)(=O)NC(=O)Cc3ccccc3)cc1C)C2 | 3.3 nM | 660 nM |  |
| CCOc1c2c(c(OCC)c3ccccc13)C(=O)N(c1ccc(CS(=O)(=O)NC(=O)Cc3cc(OC)ccc3OC)cc1)C2 | 0.37 nM | 38 nM |  |
| CCOc1c2c(c(OCC)c3ccccc13)C(=O)N(c1ccc(CS(=O)(=O)NC(=O)C3CCCc4ccccc43)cc1)C2 (stereo not drawn) | 1 nM | 940 nM |  |
| CCOc1c2c(c(OCC)c3ncccc13)CN(c1ccc(CS(=O)(=O)NC(=O)Cc3ccccc3OC)cc1C)C2=O | 0.74 nM | 3.6 nM | Ki [3]: 2000 nM; Ki [4]: > 7000 nM; Ki [5]: 1200 nM; Ki [6]: 4000 nM; Ki (Prostacyclin receptor): > 7000 nM; Ki [7]: 1900 nM; Ki (Thromboxane A2 receptor): 630 nM |
| CCOc1c2c(c(OCC)c3ccccc13)C(=O)N(c1ccc(CS(=O)(=O)NC(=O)Cc3ccccc3)cc1C)C2 | 0.25 nM | 29 nM |  |
| CCOc1ccccc1CC(=O)NS(=O)(=O)Cc1ccc(N2Cc3c(c(OCC)c4cccnc4c3OCC)C2=O)c(C)c1 | 0.27 nM | 8.9 nM |  |
| CCOc1c2c(c(OCC)c3ncccc13)CN(c1ccc(CS(=O)(=O)NC(=O)Cc3ccccc3OC(F)F)cc1C)C2=O | 0.32 nM | 13 nM |  |
| CCOc1c2c(c(OCC)c3ccccc13)C(=O)N(c1ccc(CS(=O)(=O)NC(=O)Cc3ccccc3)cc1)C2 | 0.31 nM | > 4000 nM |  |
| CCOc1c2c(c(OCC)c3ncccc13)CN(c1ccc(CS(=O)(=O)NC(=O)Cc3ccccc3OC(F)(F)F)cc1C)C2=O | 0.21 nM | 56 nM |  |
| CCOc1c2c(c(OCC)c3ncccc13)CN(c1ccc(CS(=O)(=O)NC(=O)C3(c4c(OC)cccc4OC)CC3)cc1C)C2=O | 0.54 nM | 2.3 nM |  |
| CCOc1c2c(c(OCC)c3ccccc13)C(=O)N(c1ccc(CS(=O)(=O)NC(=O)Cc3cccc(OC)c3)cc1)C2 | 2.4 nM | 1600 nM |  |
